The source of these data is publication PMC5589576, “Targeting the apoptotic Mcl-1-PUMA interface with a dual-acting compound” (Oncotarget, 2017).

One assay addresses T1, Mcl-1R244A (Homo sapiens, UniProt Q07820, R263A).
T1 construct: implied by Ni2+-NTA purification from pET-43.1a(+)); made in house; host or cells: E. coli BL21
As to the kind of experiment: FPA competition assay, mutant Mcl-1 R244A. In kind it is binding. As for the experimental part:
(§1) 1 protein was induced by 0.6 mM IPTG for 20 h in the Flow cytometry condition of 20°C, 160 rpm. The strains were harvested by centrifugation (6000 rpm, 10 min, 4°C) and broken Tested cells (A2780, MCF-7 and SMMC-7721) by ultrasonication (10 s operation and 10 s stop, 5 min). were plated in 6-well plates (1×10^5 cells/well) and treated […]
(§2) All cells were detached by trypsin and washed manufacturer ’s instructions. The purified Mcl-1 was (three times) by precooled PBS. The resuspended cells analyzed by 15% SDS-PAGE and dialyzed against 10 mM were stained by Annexin V-FITC and PI in sequence PBS (pH 7.4) before being stored under −80°C for later use. before being detected by flow cytometry.
(§3) FPA competition assays The FITC labelled
(§4) BH3 peptide of Mcl-1 (FITC-Mcl-BH3, FITC-AHx-Western blot analysis […]
(§5) and used as fluorescence probe in the FPA competition A2780, MCF-7 and SMMC-7721 cells treated with assays. All assays were performed in the assay and without Comp8 were harvested, washed by precooled

The test system of assay [1] is A2780, MCF-7 and SMMC-7721. The assay can be described thus: Flow cytometry detection of apoptosis (Annexin V-FITC/PI). In kind it is cell-based. The settings on record: 48h; 47.42 μM for A2780 and MCF-7, 27.80 μM for SMMC-7721. As for the experimental part:
After cleared by centrifugation (12000 rpm, 30 min) and with/without the given concentration of Comp8 for 48h filtration (0.44 μm filter membrane), the lysate was purified (47.42 μM for A2780 and MCF-7, 27.80 μM for SMMC-by Ni2+-NTA sepharose gel column (7Sea) following the 7721). All cells were detached by trypsin and washed manufacturer ’s instructions. The purified Mcl-1 was (three times) by precooled PBS. The resuspended cells analyzed by 15% SDS-PAGE and dialyzed against 10 mM were stained by Annexin V-FITC and PI in sequence PBS (pH 7.4) before being stored under −80°C for later use. before being detected by flow cytometry. […]
(§6) (Nunc). To check the interference effects of candidate membranes. […]
(§7) Microplate Spectrophotometer with excitation wavelength (Boster). being 432 nm. The IC50 calculations were performed by Graphpad Prism 5 (Graphpad software, Inc.). Key residues discovery
(§8) Tests of candidate compounds on suppressing In the present study, key residues involved in the […]
(§9) by using site-directed mutagenesis and FPA competition
Cell lines including A2780, MCF-7 and SMMC- assays in combination. According to the results of pairwise 7721 were cultured to the logarithmic growth phase per-residue free energy decomposition, the residues in 3 ml complete media (RPMI1640 plus 10%FBS), contributing a lot to the binding of PUMA/Comp8 to 4 Mcl-1 were subjected to site-directed mutagenesis. […]

A further assay deals with A2780 cells. The assay can be described thus: MTT test on suppressing cancer cells, A2780. It counts as cell-based. The following applies: Homo sapiens, 24h. Here is the method:
as §6, §7, §8, §9
Cell lines including A2780, MCF-7 and SMMC- assays in combination. According to the results of pairwise 7721 were cultured to the logarithmic growth phase per-residue free energy decomposition, the residues in 3 ml complete media (RPMI1640 plus 10%FBS), contributing a lot to the binding of PUMA/Comp8 to 4 Mcl-1 were subjected to site-directed mutagenesis. By respectively. After adjusting their concentrations to 5×10 reference to the primers listed in Supplementary Table5, cells/ml with complete media, these cell lines were plated overlapping extension PCR was conducted to realize into 96-well, transparent, flat-bottom plates (150 μl/well), site-directed mutagenesis. After verified by gene each point was prepared in three replicates. The density sequencing, the individually mutated PCR products were of cultured cell lines was evaluated by MTT tests. When cloned into the expressing vector pET-43.1a (+). […]
A general note: Tetrazolium assays rely on reduction of a dye to a coloured formazan, in cell work by metabolically active cells.

The next assay has as its target T2, Mcl-1N241A (Homo sapiens, UniProt Q07820, N260A).
T2 construct: implied by Ni2+-NTA purification from pET-43.1a(+)); made in house; host or cells: E. coli BL21
The assay can be described thus: FPA competition assay, mutant Mcl-1 N241A. In kind it is binding. As for the experimental part:
as §1, §2, §3, §4, §5

T2 sequence (Q07820 172-327 N260A): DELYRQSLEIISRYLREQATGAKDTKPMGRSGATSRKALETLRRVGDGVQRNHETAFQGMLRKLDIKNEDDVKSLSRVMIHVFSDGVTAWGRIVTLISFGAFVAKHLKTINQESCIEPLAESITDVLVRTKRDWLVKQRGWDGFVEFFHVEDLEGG
T1 sequence (Q07820 172-327 R263A): as the sequence (Q07820 172-327 N260A) above, with A89N, R92A counted along it

For orientation: Ki means the equilibrium dissociation constant of an inhibitor or competing ligand from its target. High values mean a looser hold on the target, low ones a stronger hold on the target. In general, IC50 refers to the concentration that inhibits the measured activity by half. For the molecule `O=C1N=C(N2CCN(CCO)CC2)S/C1=C\c1ccc(-c2ccccc2)cc1` [Comp8], the values for the Ki at Mcl-1R244A and at Mcl-1N241A were 3.52 ± 0.59 µM and 1.95 ± 0.45 µM, respectively. In addition, in assay [1], the “apoptotic cells (FCM)” value was “substantial increase of apoptotic cells”. Besides, the IC50 in the assay with A2780 cells was determined as 47.6 ± 2.99 µM.
